Series [1] concerns the target T1, Renin (Rattus norvegicus) (UniProt P08424).
T1 sequence (whole entry): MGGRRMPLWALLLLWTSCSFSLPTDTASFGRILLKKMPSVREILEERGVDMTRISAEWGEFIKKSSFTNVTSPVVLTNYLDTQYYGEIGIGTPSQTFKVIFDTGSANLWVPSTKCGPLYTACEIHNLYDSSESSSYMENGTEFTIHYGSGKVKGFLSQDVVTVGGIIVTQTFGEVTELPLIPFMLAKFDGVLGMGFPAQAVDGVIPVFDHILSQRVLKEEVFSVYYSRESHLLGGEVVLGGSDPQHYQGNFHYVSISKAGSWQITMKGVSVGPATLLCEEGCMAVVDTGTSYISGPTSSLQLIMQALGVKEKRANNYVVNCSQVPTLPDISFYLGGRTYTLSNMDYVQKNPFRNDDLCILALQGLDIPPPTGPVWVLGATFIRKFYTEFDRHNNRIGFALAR
As to the kind of experiment: Tested for percent inhibition against renin at 10 e-6 M concentration in rat. It counts as functional.

Series [2] is described as follows: Partition coefficient (LogP) value was evaluated. The format is physicochemical. The conditions noted are these: octanol/water.
Series [3] in a line: Tested for aqueous solubility of the compound. The format is physicochemical. Particulars: read-out: S.
Series [4] can be described thus: Tested for pKa value of the compound. The format is physicochemical.
Series [5] has as its target T1, Renin (Rattus norvegicus). The series is described as follows: Tested for % inhibition against renin at 10E-6 M concentration. It counts as functional.

Molecules are shown by their SMILES. Values after ≈ are worked out from the molar mass of the structure shown. A value given as a limit tells only on which side of the number the result lay.

In the case of `CC(C)C[C@H](O)[C@H](O)[C@H](CC1CCCCC1)NC(=O)OC(C)(C)C`, the inhibition in series [1] stood at 0%. Besides, in series [2], the logP was 4. Besides, the solubility in series [3] was less than 20 µg/mL.

`CC(C)C[C@H](O)[C@H](O)[C@H](CC1CCCCC1)NC(=O)[C@H](Cc1csc(N)n1)NC(=O)[C@H](Cc1ccccc1)NS(=O)(=O)N1CCOCC1` yielded a logP in series [2] of 3.1. For the same compound, the solubility in series [3] came out at 10 µg/mL (≈ 14.1 µM). Also, in series [4], the pKa came out at 6.3.

As for `CC(C)C[C@H](O)[C@H](O)[C@@H](N)CC1CCCCC1`, in series [2], the logP stood at 2. Further, the solubility in series [3] was found to be 5870 µg/mL (≈ 24100 µM). For the same compound, in series [5], the inhibition worked out at 0%. This compound yielded a pKa in series [4] of 9.3.

These data come from ChEMBL document CHEMBL1127223, “Evaluation of the intestinal permeability and hepatic handling of peptidomimetic analogs” (Bioorg Med Chem Lett, 1993).
